Results reported in PMC7473772 (eLife, 2020).
Values joined by “and” are separate entries in the source; they are usually repeats but may differ in a detail not shown here. Equal entries are not always repeated. Where two headings read alike, the source gives them in different places.

How the values were obtained:
[1] = tested on: tbaqp1-2-3 null cells expressing TbAQP2 position 84, 118 and 218 Trp and Met mutants; assay: Drug sensitivity assay (resazurin), pentamidine and SHAM; assay type: cell-based, Trypanosoma brucei brucei
[2] = tested on: tbaqp1-2-3 null cells; assay: as above; assay type: cell-based, Trypanosoma brucei brucei; conditions: KO AQP1-3
[3] = tested on: tbaqp1-2-3 null cells expressing TbAQP2WT; assay: as above; assay type: cell-based, Trypanosoma brucei brucei; conditions: +AQP2 W.T in KO AQP1-3
[4] = tested on: tbaqp2/tbaqp3 null cells expressing TbAQP2^L258Y; assay type: cell-based, Trypanosoma brucei brucei
[5] = tested on: tbaqp2/tbaqp3 null cells expressing TbAQP2^I110W/L264R; assay type: cell-based, Trypanosoma brucei brucei
[6] = tested on: tbaqp2/tbaqp3 null cells expressing TbAQP2 L218W; assay: microbe, parasite or virus in culture; assay type: cell-based, Trypanosoma brucei brucei
[7] = tested on: tbaqp2/tbaqp3 null cells expressing TbAQP2 L84M; assay: microbe, parasite or virus in culture; assay type: cell-based, Trypanosoma brucei brucei
[8] = tested on: tbaqp2/tbaqp3 null cells expressing TbAQP2^I110W; assay type: cell-based, Trypanosoma brucei brucei
[9] = tested on: tbaqp2/tbaqp3 null cells expressing TbAQP2 L84W; assay: microbe, parasite or virus in culture; assay type: cell-based, Trypanosoma brucei brucei
[10] = biological target: TbAQP2/HAPT1 (Trypanosoma brucei brucei, UniProt Q6ZXT3); assay: cell-based; assay type: cell-based
[11] = tested on: tbaqp2/tbaqp3 null cells expressing TbAQP2^L264R; assay type: cell-based, Trypanosoma brucei brucei
[12] = tested on: tbaqp2 null (AQP2-KO); assay: Drug sensitivity assay (resazurin); assay type: cell-based; conditions: Trypanosoma brucei
[13] = tested on: tbaqp2/tbaqp3 null cells expressing TbAQP2 L118W; assay: microbe, parasite or virus in culture; assay type: cell-based, Trypanosoma brucei brucei
[14] = tested on: T. b. brucei 2T1; assay: Drug sensitivity assay (resazurin); assay type: cell-based; conditions: Trypanosoma brucei
Experimental: The tbaqp2/tbaqp3 null cells ([Baker et al., 2012]) and tbaqp1-2-3 null cells ([Jeacock et al., 2017]) (both obtained from David Horn, University of Dundee, UK) are derived from the 2T1 strain of T. b. brucei ([Alsford and Horn, 2008]). The CRK12 RNAi cell line^28 was obtained from Dr Tansy Hammarton (University of Glasgow, UK) and is also based on the 2T1 cell line; RNAi expression was induced with 1 µg/ml tetracycline in the medium. All experiments were performed with bloodstream form trypanosomes grown in vitro in HMI-11 medium as described ([Wallace et al., 2002]) at 37°C in a 5% CO2 atmosphere. Cultures were routinely maintained in 10 ml of this medium, being seeded at 5 × 10^4 cells/ml and passed to fresh medium at reaching approximately 3 × 10^6 cells/ml after 48 hr. For transport experiments 150 or 200 ml of culture was seeded at the same density in large flasks and incubated until the culture reached late-log phase.
Drug sensitivity assays for T. b. brucei bloodstream forms used the cell viability dye resazurin (Sigma) and were performed exactly as described ([Wallace et al., 2002]; [Bridges et al., 2007]) in 96-well plates with doubling dilutions of test compound, starting at 100 µM, over 2 rows of the plate (23 dilutions plus no-drug control). Incubation time with test compound was 48 hr (37°C/5% CO2), followed by an additional 24 hr in the presence of the dye.

[15] = tested on: tbaqp2/tbaqp3 null cells expressing TbAQP2^S131P/S263A; assay type: cell-based, Trypanosoma brucei brucei
[16] = tested on: tbaqp2/tbaqp3 null cells expressing TbAQP2 L218M; assay: microbe, parasite or virus in culture; assay type: cell-based, Trypanosoma brucei brucei
[17] = tested on: tbaqp2/tbaqp3 null cells; assay: microbe, parasite or virus in culture; assay type: cell-based, Trypanosoma brucei brucei; conditions: for EC50: Trypanosoma brucei
[18] = tested on: tbaqp2/tbaqp3 null cells expressing TbAQP2WT; assay: microbe, parasite or virus in culture; assay type: cell-based, Trypanosoma brucei brucei; conditions: for EC50: Trypanosoma brucei
[19] = tested on: tbaqp2/tbaqp3 null cells expressing TbAQP2 L118M; assay: microbe, parasite or virus in culture; assay type: cell-based, Trypanosoma brucei brucei
[20] = tested on: TbAQP2 expressed in tbaqp2 null; assay: Drug sensitivity assay (resazurin); assay type: cell-based; conditions: Trypanosoma brucei
[21] = 3 repeats, read-out: EC50, MEAN
[22] = Trypanosoma brucei, read-out: EC50, MEAN
[23] = Trypanosoma brucei, read-out: EC50, MEAN (nM)
[24] = Trypanosoma brucei, read-out: EC50, single repeats
[25] = read-out: EC50 AQP2-KO AVG, AQP2-KO / tbaqp2 null, 48 h drug + 24 h resazurin
[26] = 48 h drug + 24 h resazurin, read-out: EC50 control 2T1 AVG

TbAQP2/HAPT1, sequence (Q6ZXT3 whole entry): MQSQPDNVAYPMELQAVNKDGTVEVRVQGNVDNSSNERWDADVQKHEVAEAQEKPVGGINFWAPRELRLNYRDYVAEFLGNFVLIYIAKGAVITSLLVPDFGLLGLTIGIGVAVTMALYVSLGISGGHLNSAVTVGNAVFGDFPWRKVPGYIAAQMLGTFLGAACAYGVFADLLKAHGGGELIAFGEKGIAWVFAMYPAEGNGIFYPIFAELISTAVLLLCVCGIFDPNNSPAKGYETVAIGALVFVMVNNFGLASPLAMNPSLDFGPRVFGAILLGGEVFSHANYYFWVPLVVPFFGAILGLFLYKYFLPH

O=C(NO)c1ccccc1O [SHAM]
EC50 ([1]; +L84M in KO AQP1-3, 3 repeats, read-out: EC50, MEAN): 18.1 µM
EC50 ([1]; +L84M in KO AQP1-3, read-out: EC50, single repeats): 17.6 µM and 17.7 µM and 19.1 µM
EC50 ([1]; +L84W in KO AQP1-3, 3 repeats, read-out: EC50, MEAN): 13.2 µM
EC50 ([1]; +L84W in KO AQP1-3, read-out: EC50, single repeats): 11.3 µM and 13.7 µM and 14.6 µM
EC50 ([1]; +L84W/L118W in KO AQP1-3, 3 repeats, read-out: EC50, MEAN): 12.2 µM
EC50 ([1]; +L84W/L118W in KO AQP1-3, read-out: EC50, single repeats): 11.7 µM and 12.3 µM and 12.6 µM
EC50 ([1]; +L118M in KO AQP1-3, 3 repeats, read-out: EC50, MEAN): 11.5 µM
EC50 ([1]; +L118M in KO AQP1-3, read-out: EC50, single repeats): 10.9 µM and 12.3 µM and 11.4 µM
EC50 ([1]; +L118W in KO AQP1-3, 3 repeats, read-out: EC50, MEAN): 10.8 µM
EC50 ([1]; +L118W in KO AQP1-3, read-out: EC50, single repeats): 10.4 µM and 11.1 µM and 10.9 µM
EC50 ([1]; +L218M in KO AQP1-3, 3 repeats, read-out: EC50, MEAN): 15.2 µM
EC50 ([1]; +L218M in KO AQP1-3, read-out: EC50, single repeats): 15.8 µM and 12.7 µM and 17.1 µM
EC50 ([1]; +L218W in KO AQP1-3, 3 repeats, read-out: EC50, MEAN): 15.9 µM
EC50 ([1]; +L218W in KO AQP1-3, read-out: EC50, single repeats): 14.7 µM and 16.3 µM and 16.9 µM
EC50 [2, 21]: 7.9 µM
EC50 ([2]; read-out: EC50, single repeats): 7.38 µM and 7.93 µM and 8.39 µM
EC50 [3, 21]: 18.6 µM
EC50 ([3]; read-out: EC50, single repeats): 18.5 µM and 18.1 µM and 19.2 µM

N=C(N)c1ccc(/N=N/Nc2ccc(C(=N)N)cc2)cc1 [Diminazene]
EC50, percent of AQP2/3 null EC50 [4]: 105.69%
EC50 as percent of AQP2/3 null EC50, MEAN [5]: 108.15%
EC50 (% of aqp2/aqp3 null), MEAN [6]: 38.99 % of aqp2/aqp3 null
Sensitisation relative to tbaqp2/tbaqp3 null [6]: ~ 2 fold
EC50 [6, 22]: 0.0296 µM
EC50, MEAN (% KO) [7]: 99.61 % KO
EC50 [7, 23]: 145 nM
EC50, percent of AQP2/3 null EC50 [8]: 114.65%
EC50 (% of aqp2/aqp3 null), MEAN [9]: 113.28 % of aqp2/aqp3 null
EC50 (% of aqp2/aqp3 null), single repeats [9]: 126.86 % of aqp2/aqp3 null and 125.65 % of aqp2/aqp3 null and 87.33 % of aqp2/aqp3 null
EC50 [9, 22]: 0.0861 µM
EC50 [9, 24]: 0.0964 µM
EC50 ([9]; read-out: EC50, single repeats): 0.0955 µM and 0.0664 µM
ΔG0 [10]: -5.74 kcal/mol
δ(ΔG0) [10]: 4.45 kcal/mol
Ki ([10]; HAPT Ki, AVG): 62.5 µM
Ki ([10]; Ki): 63 µM
EC50, percent of AQP2/3 null EC50 [11]: 99.35%
EC50 [12, 25]: 0.108 µM
EC50 (% of aqp2/aqp3 null), MEAN [13]: 95.82 % of aqp2/aqp3 null
EC50 (% of aqp2/aqp3 null), single repeats [13]: 118.42 % of aqp2/aqp3 null and 101.85 % of aqp2/aqp3 null and 67.18 % of aqp2/aqp3 null
EC50 [13, 22]: 0.0728 µM
EC50 [13, 24]: 0.09 µM
EC50 ([13]; read-out: EC50, single repeats): 0.0774 µM and 0.0511 µM
EC50 [14, 26]: 0.122 µM
EC50, percent of AQP2/3 null EC50 [15]: 93.48%
EC50, MEAN (% KO) [16]: 48.28 % KO
Sensitisation relative to tbaqp2/tbaqp3 null [16]: ~ 2 fold
EC50 [16, 23]: 54 nM
EC50 [16, 24]: 38.7 nM
EC50 ([16]; read-out: EC50, single repeats): 61.5 nM and 61.9 nM and 39.1 nM and 34.8 nM and 41.6 nM
EC50 (% of aqp2/aqp3 null), MEAN [17]: 100.00 % of aqp2/aqp3 null
EC50, MEAN (% KO) [17]: 100.00 % KO
EC50, percent of AQP2/3 null EC50 [17]: 100.00%
EC50 as percent of AQP2/3 null EC50, MEAN [17]: 100.00%
EC50 as percent of AQP2/3 null EC50, single repeats [17]: 100%
EC50 ([17]; read-out: EC50, MEAN): 76 nM
EC50 ([17]; read-out: EC50, MEAN (nM)): 175 nM
EC50 (% of aqp2/aqp3 null), MEAN [18]: 97.55 % of aqp2/aqp3 null
EC50, MEAN (% KO) [18]: 98.90 % KO
EC50, percent of AQP2/3 null EC50 [18]: 96.75% and 102.22% and 102.99% and 78.60%
EC50 as percent of AQP2/3 null EC50, MEAN [18]: 102.99%
EC50 ([18]; read-out: EC50, MEAN): 74.2 nM
EC50 ([18]; read-out: EC50, MEAN (nM)): 149 nM
EC50, MEAN (% KO) [19]: 93.77 % KO
EC50 [19, 23]: 177 nM

CC[n+]1c(-c2ccccc2)c2cc(N)ccc2c2ccc(N)cc21 [Ethidium]
ΔG0 [10]: -5.47 kcal/mol
δ(ΔG0) [10]: 4.71 kcal/mol
Ki ([10]; Ki): 97 µM
EC50 [12, 25]: 1.39 µM
EC50 [20]: 1.35 ± 0.11 µM
EC50 [14, 26]: 1.32 µM
EC50 [17]: 1380 ± 140 nM

CC[n+]1c(-c2ccccc2)c2cc(N/N=N/c3cccc(C(=N)N)c3)ccc2c2ccc(N)cc21 [Isometamidium]
ΔG0 [10]: -7.43 kcal/mol
δ(ΔG0) [10]: 2.72 kcal/mol
Ki ([10]; HAPT Ki, AVG): 3.54 µM
Ki ([10]; Ki): 3.5 µM
EC50 [12, 25]: 0.103 µM
EC50 ([12]; tbaqp2 null, read-out: EC50): 0.103 ± 0.014 µM
EC50 [20]: 0.098 ± 0.024 µM
EC50 [14, 26]: 0.112 µM
EC50 ([14]; read-out: EC50): 0.112 ± 0.012 µM
EC50 [17]: 95 ± 12 nM
